According to publication PMC11233931, “Remodeling tumor‐associated macrophage for anti‐cancer effects by rational design of irreversible inhibition of mitogen‐activated protein kinase‐activated protein kinase 2” (MedComm, 2024):

Experiments:
Assay in all cases: Eurofins kinase selectivity profile against 380 other human recombinant kinases (Table S2)
Type in all cases: biochemical
[1] = molecular target: T1, 380 human recombinant protein kinases (Homo sapiens, UniProt P51957); settings: NEK4(h), read-out: Inhibition rate
T1 construct: purchased Eurofins (Celle Lévescault)
In short: (§1)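 Off-target profiling: one compound assayed by a commercial provider over 380 recombinant human protein kinases at various concentrations.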

[2] = molecular target: T2, 380 human recombinant protein kinases (Homo sapiens, UniProt Q8IVW4); settings: CDKL3(h), read-out: Inhibition rate
T2 construct: purchased Eurofins (Celle Lévescault)
In short: as §1

[3] = molecular target: T3, 380 human recombinant protein kinases (Homo sapiens, UniProt Q96L34); settings: MARK4(h), read-out: Inhibition rate
T3 construct: purchased Eurofins (Celle Lévescault)
T3 sequence (Q96L34 1-752): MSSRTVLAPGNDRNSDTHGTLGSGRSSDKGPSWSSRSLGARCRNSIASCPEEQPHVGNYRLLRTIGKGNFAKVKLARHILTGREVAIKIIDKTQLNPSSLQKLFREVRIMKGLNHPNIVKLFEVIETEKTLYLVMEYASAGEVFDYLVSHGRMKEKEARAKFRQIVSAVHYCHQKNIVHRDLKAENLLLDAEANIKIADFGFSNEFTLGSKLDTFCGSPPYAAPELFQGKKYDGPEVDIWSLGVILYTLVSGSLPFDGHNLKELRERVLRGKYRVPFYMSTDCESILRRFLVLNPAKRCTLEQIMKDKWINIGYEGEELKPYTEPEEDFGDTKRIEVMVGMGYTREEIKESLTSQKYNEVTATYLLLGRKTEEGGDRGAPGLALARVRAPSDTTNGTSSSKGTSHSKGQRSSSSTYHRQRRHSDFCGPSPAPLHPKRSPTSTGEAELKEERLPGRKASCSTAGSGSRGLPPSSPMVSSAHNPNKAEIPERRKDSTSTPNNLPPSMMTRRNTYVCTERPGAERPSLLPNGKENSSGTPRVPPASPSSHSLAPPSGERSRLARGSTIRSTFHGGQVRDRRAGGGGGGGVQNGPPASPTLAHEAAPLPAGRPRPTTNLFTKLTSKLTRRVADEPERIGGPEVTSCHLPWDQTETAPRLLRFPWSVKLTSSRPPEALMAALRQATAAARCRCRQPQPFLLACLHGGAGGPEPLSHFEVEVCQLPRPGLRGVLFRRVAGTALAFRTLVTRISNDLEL
In short: as §1

[4] = molecular target: T4, 380 human recombinant protein kinases (Homo sapiens, UniProt Q99683); settings: ASK1(h), read-out: Inhibition rate
T4 construct: purchased Eurofins (Celle Lévescault)
T4 sequence (Q99683 1-1374): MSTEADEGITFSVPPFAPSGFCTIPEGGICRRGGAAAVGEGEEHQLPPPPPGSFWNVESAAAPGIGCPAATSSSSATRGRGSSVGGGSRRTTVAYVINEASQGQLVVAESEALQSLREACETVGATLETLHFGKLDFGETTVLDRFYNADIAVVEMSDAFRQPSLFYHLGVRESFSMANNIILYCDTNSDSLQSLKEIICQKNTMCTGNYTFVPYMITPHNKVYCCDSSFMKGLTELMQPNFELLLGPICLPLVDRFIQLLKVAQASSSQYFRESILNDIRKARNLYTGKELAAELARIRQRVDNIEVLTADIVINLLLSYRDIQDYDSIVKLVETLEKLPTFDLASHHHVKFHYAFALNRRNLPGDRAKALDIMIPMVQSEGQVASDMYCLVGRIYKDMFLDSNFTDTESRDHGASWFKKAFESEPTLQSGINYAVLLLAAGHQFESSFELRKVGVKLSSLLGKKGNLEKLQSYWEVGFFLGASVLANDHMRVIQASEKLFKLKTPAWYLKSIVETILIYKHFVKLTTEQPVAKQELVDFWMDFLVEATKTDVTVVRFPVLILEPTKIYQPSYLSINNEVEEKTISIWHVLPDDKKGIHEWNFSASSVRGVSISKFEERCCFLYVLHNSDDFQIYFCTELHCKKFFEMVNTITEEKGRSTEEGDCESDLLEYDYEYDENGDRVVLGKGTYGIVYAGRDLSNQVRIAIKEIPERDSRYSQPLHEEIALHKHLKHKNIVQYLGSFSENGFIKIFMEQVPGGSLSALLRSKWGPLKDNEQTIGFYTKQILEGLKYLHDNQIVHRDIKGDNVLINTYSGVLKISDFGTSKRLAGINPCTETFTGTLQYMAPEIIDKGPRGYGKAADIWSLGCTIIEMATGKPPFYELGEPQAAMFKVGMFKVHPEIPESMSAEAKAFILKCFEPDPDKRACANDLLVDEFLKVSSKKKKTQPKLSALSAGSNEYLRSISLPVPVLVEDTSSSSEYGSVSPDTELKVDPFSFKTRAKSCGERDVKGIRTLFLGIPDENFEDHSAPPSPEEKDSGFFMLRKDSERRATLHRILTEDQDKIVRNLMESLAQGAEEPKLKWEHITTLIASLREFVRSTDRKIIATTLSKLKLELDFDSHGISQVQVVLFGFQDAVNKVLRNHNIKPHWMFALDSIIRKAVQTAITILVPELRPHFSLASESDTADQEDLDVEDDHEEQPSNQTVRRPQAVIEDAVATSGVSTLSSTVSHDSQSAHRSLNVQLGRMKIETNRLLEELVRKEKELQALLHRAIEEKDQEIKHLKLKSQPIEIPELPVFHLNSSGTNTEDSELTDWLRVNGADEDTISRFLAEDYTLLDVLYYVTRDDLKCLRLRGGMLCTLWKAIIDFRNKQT
In short: as §1

[5] = molecular target: T5, 380 human recombinant protein kinases (Homo sapiens, UniProt Q9Y4K4); settings: MAP4K5(h), read-out: Inhibition rate
T5 construct: purchased Eurofins (Celle Lévescault)
In short: as §1

T5 sequence (Q9Y4K4 whole entry): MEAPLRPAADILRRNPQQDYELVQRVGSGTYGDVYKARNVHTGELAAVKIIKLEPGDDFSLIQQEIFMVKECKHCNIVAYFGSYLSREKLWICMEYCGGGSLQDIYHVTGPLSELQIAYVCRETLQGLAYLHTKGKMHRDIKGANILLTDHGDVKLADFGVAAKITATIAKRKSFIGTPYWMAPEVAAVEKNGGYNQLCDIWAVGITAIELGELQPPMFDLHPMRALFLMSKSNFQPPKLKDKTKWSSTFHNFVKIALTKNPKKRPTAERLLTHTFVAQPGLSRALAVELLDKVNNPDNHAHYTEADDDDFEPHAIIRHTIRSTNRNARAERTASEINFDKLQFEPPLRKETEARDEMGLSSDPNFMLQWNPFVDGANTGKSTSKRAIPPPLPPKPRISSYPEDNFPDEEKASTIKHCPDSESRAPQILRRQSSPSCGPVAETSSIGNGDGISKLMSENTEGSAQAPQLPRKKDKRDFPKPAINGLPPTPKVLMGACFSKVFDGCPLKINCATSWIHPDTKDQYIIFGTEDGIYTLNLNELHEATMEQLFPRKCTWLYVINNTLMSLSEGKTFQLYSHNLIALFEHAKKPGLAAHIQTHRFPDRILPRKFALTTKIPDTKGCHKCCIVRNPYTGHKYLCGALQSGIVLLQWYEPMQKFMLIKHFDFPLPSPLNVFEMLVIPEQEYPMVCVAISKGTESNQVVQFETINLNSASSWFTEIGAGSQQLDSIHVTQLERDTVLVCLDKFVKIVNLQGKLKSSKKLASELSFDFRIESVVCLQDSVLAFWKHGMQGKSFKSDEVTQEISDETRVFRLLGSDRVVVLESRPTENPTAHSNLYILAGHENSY
T1 sequence (P51957 whole entry): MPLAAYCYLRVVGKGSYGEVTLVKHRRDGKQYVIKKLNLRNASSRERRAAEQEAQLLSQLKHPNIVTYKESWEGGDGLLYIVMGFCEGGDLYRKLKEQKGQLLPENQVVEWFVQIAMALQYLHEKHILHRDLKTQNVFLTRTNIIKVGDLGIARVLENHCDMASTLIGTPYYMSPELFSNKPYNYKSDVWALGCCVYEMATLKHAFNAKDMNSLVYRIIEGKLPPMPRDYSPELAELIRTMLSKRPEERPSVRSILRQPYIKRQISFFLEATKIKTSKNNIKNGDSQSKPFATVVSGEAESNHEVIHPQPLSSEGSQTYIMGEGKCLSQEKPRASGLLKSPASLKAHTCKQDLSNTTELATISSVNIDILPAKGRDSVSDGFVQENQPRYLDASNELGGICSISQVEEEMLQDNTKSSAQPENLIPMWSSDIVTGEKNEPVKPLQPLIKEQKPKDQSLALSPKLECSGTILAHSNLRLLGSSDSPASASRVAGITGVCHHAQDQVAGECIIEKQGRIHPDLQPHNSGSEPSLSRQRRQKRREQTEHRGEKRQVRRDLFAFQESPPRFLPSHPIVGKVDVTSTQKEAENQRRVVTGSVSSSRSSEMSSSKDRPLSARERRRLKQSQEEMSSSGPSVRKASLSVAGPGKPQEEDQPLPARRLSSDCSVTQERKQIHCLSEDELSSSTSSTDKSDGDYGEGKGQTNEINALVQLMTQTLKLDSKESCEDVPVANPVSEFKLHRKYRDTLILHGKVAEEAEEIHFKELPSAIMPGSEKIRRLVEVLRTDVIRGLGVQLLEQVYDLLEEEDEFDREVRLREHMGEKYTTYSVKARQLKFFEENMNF
T2 sequence (Q8IVW4 whole entry): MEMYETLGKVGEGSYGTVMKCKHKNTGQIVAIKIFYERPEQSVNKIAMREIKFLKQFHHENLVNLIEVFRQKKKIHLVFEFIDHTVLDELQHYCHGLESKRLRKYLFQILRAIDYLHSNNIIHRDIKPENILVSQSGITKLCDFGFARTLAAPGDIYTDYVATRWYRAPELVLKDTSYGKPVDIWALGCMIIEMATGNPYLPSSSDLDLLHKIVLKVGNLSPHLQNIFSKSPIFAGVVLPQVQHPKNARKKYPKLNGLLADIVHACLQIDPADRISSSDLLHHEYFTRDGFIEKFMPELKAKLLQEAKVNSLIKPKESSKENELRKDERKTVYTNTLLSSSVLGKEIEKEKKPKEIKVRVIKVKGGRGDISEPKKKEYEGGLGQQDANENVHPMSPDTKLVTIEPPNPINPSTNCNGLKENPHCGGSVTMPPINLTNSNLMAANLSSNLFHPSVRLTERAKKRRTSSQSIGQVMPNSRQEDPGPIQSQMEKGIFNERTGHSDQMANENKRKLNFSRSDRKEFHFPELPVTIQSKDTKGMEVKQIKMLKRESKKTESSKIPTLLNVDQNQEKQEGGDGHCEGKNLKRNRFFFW

Work on `C=CC(=O)Nc1cc(-c2cc(-c3cc4c([nH]3)CCNC4=O)ccn2)ccc1OC(F)(F)F` [compound 11] yielded an inhibition at 0.01 µM ([1]; 10 nM) of -2%, an inhibition at 0.1 µM ([1]; 100 nM) of 5% and an inhibition at 1 µM ([1]; 1000 nM) of 34%. It also gave an inhibition at 0.01 µM ([2]; 10 nM) of 52%, an inhibition at 0.1 µM ([2]; 100 nM) of 88% and an inhibition at 1 µM ([2]; 1000 nM) of 99%. It also gave an inhibition at 0.01 µM ([3]; 10 nM) of -10%, an inhibition at 0.1 µM ([3]; 100 nM) of -2% and an inhibition at 1 µM ([3]; 1000 nM) of -4%. The inhibition at 0.01 µM ([4]; 10 nM) was 14%, the inhibition at 0.1 µM ([4]; 100 nM) was 33% and the inhibition at 1 µM ([4]; 1000 nM) was 83%. The inhibition at 0.01 µM ([5]; 10 nM) was -7%, the inhibition at 0.1 µM ([5]; 100 nM) was -5% and the inhibition at 1 µM ([5]; 1000 nM) was 12%.
